In paper PMC11137182, “Selective and brain-penetrant ACSS2 inhibitors target breast cancer brain metastatic cells” (Frontiers in Pharmacology, 2024):
Where two headings read alike, the source gives them in different places.

How the values were obtained:
[1] = Human liver microsome stability; settings: for half-life: Human Liver Microsome Stability T1/2, human liver microsomes
ACSS2 [2] = target: T1, ACSS2 (Homo sapiens, UniProt Q9NR19); assay: SPR binding to immobilized ACSS2; settings: mean; for koff / kon: 1:1 binding model
T1 construct: His-tag (N); His-tag (C); made in house; host or cells: E. coli BL21 (DE3) RIL
T1 sequence (Q9NR19 whole entry): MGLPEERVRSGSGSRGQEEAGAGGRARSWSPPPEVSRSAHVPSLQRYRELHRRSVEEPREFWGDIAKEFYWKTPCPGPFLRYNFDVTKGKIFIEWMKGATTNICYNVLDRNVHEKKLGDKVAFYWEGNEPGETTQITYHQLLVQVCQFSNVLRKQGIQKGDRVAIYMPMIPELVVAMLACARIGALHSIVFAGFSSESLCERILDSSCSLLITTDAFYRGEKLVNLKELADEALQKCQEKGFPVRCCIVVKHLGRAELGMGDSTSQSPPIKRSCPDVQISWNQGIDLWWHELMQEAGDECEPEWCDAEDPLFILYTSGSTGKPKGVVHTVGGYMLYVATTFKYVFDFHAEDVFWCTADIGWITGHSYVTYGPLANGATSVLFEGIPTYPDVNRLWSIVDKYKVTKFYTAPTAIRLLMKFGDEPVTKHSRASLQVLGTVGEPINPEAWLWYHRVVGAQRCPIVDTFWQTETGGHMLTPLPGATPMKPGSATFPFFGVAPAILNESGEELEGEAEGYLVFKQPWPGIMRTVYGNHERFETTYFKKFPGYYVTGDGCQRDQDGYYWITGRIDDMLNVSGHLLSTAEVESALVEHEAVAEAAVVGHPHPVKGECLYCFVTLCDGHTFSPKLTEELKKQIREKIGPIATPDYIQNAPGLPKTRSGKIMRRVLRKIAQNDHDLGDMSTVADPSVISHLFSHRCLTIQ
Procedure: Overproduction of ACSS2 was achieved using a prokaryotic expression system. […] The bacterial expressions were then spun down, the supernatant discarded, and the pellets resuspended in 50 mM Tris HCl pH8.0, 800 mM NaCl, 5 mM Imidazole, 2 mM MgCl2, 10% Glycerol, 0.1 mg/mL Lysozyme, 1 mM Protease inhibitor (PMSF). After the cells were lysed via sonication, the sample was subjected to ultracentrifugation, and the clarified lysate was applied to a 5 mL Talon cobalt resin affinity column (Clonetech Laboratories, Mountain View, CA). The bound protein was washed with 300 mL wash buffer 1 (20 mM Tris HCl pH8.0, 800 mM NaCl, 15 mM Imidazole, 5 mM MgCl2, 10% Glycerol, 0.1% CHAPS) and 300 mL wash buffer 2 (20 mM Tris HCl pH8.0, 400 mM NaCl, 18 mM Imidazole, 5 mM MgCl2, 10% Glycerol) prior elution with 20 mM Tris HCl pH8.0, 400 mM NaCl, 300 mM Imidazole, 2 mM MgCl2, 5% Glycerol. Eluted ACSS2 was then dialyzed overnight into 20 mM Tris HCl pH8.0, 150 mM NaCl, 5% Glycerol, concentrated and applied to a Superdex S-200 (16/600) using the same buffer without Glycerol. ACSS2 fractions were pooled, concentrated to 3 mg/mL, aliquoted, and stored at −80°C. hACSS1 was obtained from a commercial vendor (www.mybiosource.com).
All binding assays were performed on a ProteOn XPR36 SPR Protein Interaction Array System (Bio-Rad Laboratories, Hercules, CA, United States). The instrument temperature was set at 25°C for all kinetic analyses. ProteOn GLH sensor chips were preconditioned with two short pulses each (10 s) of 50 mM NaOH, 100 mM HCl, and 0.5% sodium […]. Then, the system was equilibrated with running buffer (1x PBS pH 7.4, 3% DMSO, and 0.005% polysorbate 20). The surface of a GLH sensor chip was activated with a 1:100 dilution of a 1:1 mixture of 1-ethyl-3-(3-dimethylaminopropyl) carbodiimide hydrochloride (0.2 M) and sulfo-N-hydroxysuccinimide (0.05 M). Immediately after chip activation, the human ACSS2 or hACSS1 proteins were prepared at a concentration of 10 μg/mL in 10 mM sodium acetate, pH 5.5, and injected across ligand flow channels for 5 min at a flow rate of 30 μL/min. Then, after unreacted protein had been washed out, excess active ester groups on the sensor surface were capped by a 5 min injection of 1M ethanolamine HCl (pH 8.0) at a flow rate of 5 μL/min. A reference surface was similarly created by immobilizing a nonspecific protein (IgG b12 anti-HIV-1 gp120; was obtained through the NIH AIDS Reagent Program, Division of AIDS, NIAID, NIH: Anti-HIV-1 gp120 Monoclonal (IgG1 b12) from Dr. Dennis Burton and Carlos Barbas) and was used as a background to correct nonspecific binding. […] Data were analyzed using the ProteOn Manager Software version 3.0 (Bio-Rad). The responses from the reference flow cell were subtracted to account for the nonspecific binding and injection artifacts. Experimental data were fitted to a simple 1:1 binding model. Experiments were performed in triplicate to detect kinetic and equilibrium dissociation constants (KD).

MDA-MB-231BR cells = assay: Clonogenic survival assay; type: cell-based; settings: 100 μM, 48 h treatment, 10 days growth
Procedure: Triple-negative brain trophic cells MDA-MB-231BR and 4T1BR cells were a kind gift from Dr. Patricia Steeg (Center for Cancer Research, National Cancer Institute) ([Achrol et al., 2019]). Both cell lines were cultured in DMEM supplemented with 10% fetal bovine serum (FBS), 5% 10,000 Units/mL Penicillin-10,000 μg/mL Streptomycin, and 5% 200 mM L-Glutamine. For crystal violet staining, 5 × 10^4 cells were plated and subjected to the treatments as described in the individual figures and then stained with 0.5% crystal violet prepared in a 1:1 methanol-water solution followed by PBS washes. ACSS2 inhibitors were dissolved in 100% ultra-pure DMSO.
To assess clonogenic survival, 1 × 10^5 cells were seeded into a 6-well plate until 70%–80% confluency and treated for 48 h with analogs at 100 uM (unless otherwise stated in the figure legend). After 48 h, cells were trypsinized and counted using hemocytomer, and 1 × 10^4 cells per treatment were plated into a 6-well plate with fresh culture medium and allowed to grow for 10 days. Following 10-day incubation, cells were washed twice with PBS, stained with crystal violet for 30 min, and washed with dH2O twice. Colonies >50mircons were counted. For crystal violet staining, 0.5% crystal violet was prepared in a 1:1 methanol-water solution.

ACSS2 [3] = target: T1, ACSS2; assay: Fluorescence polarization-based ACSS2 biochemical assay (ATP to AMP conversion); settings: 100 nM ACSS2, triplicate, ± SD; read-out: IC50, inhibition of ATP to AMP conversion of ACSS2
Procedure: ACSS2 enzyme activity was measured using the TranScreener AMP^2/GMP^2 Assay Kit—FP Readout assay (BellBrook Labs). The assay was performed in white, opaque, 96-well plates. […] ACSS2 was used in assay buffer (30 mM HEPES, pH 7.4, 140 mM NaCl, 2 mM MgCl2, 5 mM sodium acetate, 2 mM DTT, 0.05% CHAPS). Substrate mix was added, followed by a 60-min incubation. Final substrate concentrations were 5 mM acetate, 50 μM ATP, and 5 μM CoA. After incubation, conjugated AMP antibody and AMP tracer were added according to the methods described by BellBrook Labs. After 30 min, the FP signal was measured using a Tecan Spark multimode microplate reader. In the analysis, data were normalized to represent the percentage inhibition of ATPase activity.

FASN = assay: Immunoblot of FASN protein levels; type: cell-based; settings: MDA-MB-231BR cells, 24 h
Procedure: Immunoblotting protocols have been previously described. Briefly, cell lysates from one to five x 10^6 cells were prepared in radioimmune precipitation assay buffer (150 mM NaCl, 1% NP40, 0.5% DOC, 50 mM Tris HCL at pH 8, 0.1% SDS, 10% glycerol, 5 mM EDTA, 20 mM NaF, and 1 mM Na3VO4) supplemented with 1 μg/mL each of pepstatin, leupeptin, aprotinin, and 200 μg/mL PMSF. Lysates were cleared by centrifugation at 16,000 x g for 15 min at 4°C and analyzed by SDS-PAGE and autoradiography with chemiluminescence. Proteins were analyzed by immunoblotting using primary antibodies indicated above.

MDR1 (P-gp) = assay: Bi-directional permeability across MDR1-MDCK cell monolayer (BBB assay); type: in vitro ADME, canine; settings: dog; MDR1-MDCK I monolayer, A to B
Excerpt: This assay provides the apparent permeability coefficient (Papp), efflux ratio, and % recovery to assess compound permeation.

[4] = 25°C, Langmuir isotherm equilibrium fit, n=3, read-out: KD equilibrium
[5] = global fit, n=3, read-out: KD kinetic/global

Compound: O=C(O)Cc1ccccc1Nc1c(Cl)cccc1Cl [Diclofenac, reference compound]
- Remaining (T=60min) ([1]; human liver microsomes): 0.00044
- Remaining (NCF=60min) ([1]; human liver microsomes): 0.8763
- CLint scaled ([1]; human, liver microsomes): 236 mL/min/kg
- microsomal CLint ([1]; human, liver microsomes): 262 µL/min/mg
- half-life ([1]; human, liver microsomes): 318 s

Compound: Cc1cccn2c(CC(=O)NCCC(c3ccccc3)c3ccco3)cnc12 (stereo not shown) [AD-3766]
- koff (ACSS2 [2]; n=3, read-out: koff): 0.359 s⁻¹
- kon (ACSS2 [2]; n=3, read-out: kon): 5010 M⁻¹ s⁻¹
- Kd (ACSS2 [2]; [4]): 70.6 µM
- Kd (ACSS2 [2]; [5]): 77.6 µM
- Remaining (T=60min) ([1]; human liver microsomes): 0.0005
- Remaining (NCF=60min) ([1]; human liver microsomes): 0.9639
- CLint scaled ([1]; human, liver microsomes): 1360 mL/min/kg
- Human Liver Microsome Stability T1/2 ([1]; human, liver microsomes): 54 s
- microsomal CLint ([1]; human, liver microsomes): 1520 µL/min/mg
- half-life ([1]; human, liver microsomes): 54.8 s
- clonogenic survival (MDA-MB-231BR cells): significant reduction in clonogenic survival

Compound: O=C(CCN1CCCC(c2ccccc2)(c2ccccc2)C1)NC1CC1 [AD-2441]
- clonogenic survival (MDA-MB-231BR cells): significantly reduce clonogenic survival

Compound: COCCNC(=O)Nc1ccc2nc(-c3cccs3)c(-c3cccs3)nc2c1 [VY-3-249, reference compound]
- IC50 (ACSS2 [3]): 1.2 ± 0.49 µM
- koff (ACSS2 [2]; n=3): 0.105 s⁻¹
- kon (ACSS2 [2]; n=3): 1800 M⁻¹ s⁻¹
- Kd (ACSS2 [2]; [4]): 53.2 µM
- Kd (ACSS2 [2]; [5]): 66 µM
- clonogenic survival (MDA-MB-231BR cells): significantly reduce clonogenic survival
- protein levels of FASN (FASN): reduced protein levels of FASN

Compound: C[C@H](N)C(=O)N1CCCC(c2ccccc2)(c2ccccc2)C1 [AD-1363]
- clonogenic survival (MDA-MB-231BR cells): significant reduction in clonogenic survival

Compound: CN1CCC(O)(C(=O)NCCc2ccccc2Oc2ccccc2)CC1 [AD-7346]
- IC50 (ACSS2 [3]): 2.03 ± 0.21 µM
- koff (ACSS2 [2]; n=3, read-out: koff): 0.399 s⁻¹
- kon (ACSS2 [2]; n=3, read-out: kon): 10100 M⁻¹ s⁻¹
- Kd (ACSS2 [2]; [4]): 39.8 µM
- Kd (ACSS2 [2]; [5]): 49.4 µM

Compound: COCCc1ccc(OCC(O)CNC(C)C)cc1 (stereo not shown) [Metoprolol, reference compound]
- Papp A→B (MDR1 (P-gp)): 12.9 ×10⁻⁶ cm/s

Compound: C[C@]12CC[C@H]3[C@@H](CCC4=CC(=O)CC[C@@]43C)[C@@H]1CC[C@@H]2O [Testosterone, reference compound]
- Remaining (T=60min) ([1]; human liver microsomes): 0.06959
- Remaining (NCF=60min) ([1]; human liver microsomes): 0.8976
- CLint(liver) ([1]; human liver microsomes, scaled): 80.3781 mL/min/kg
